From article PMC7527219 (Science Advances, 2020)
Entries after “also recorded” stand apart in the source; their conditions may differ. Peptide text beside a SMILES is read from it.

Key:
[1] = b7: ref [9], [10]; b55: ref [10]; cited from earlier work
[2] = molecular target: PmtCD PSM transporter (C2D2 heterotetramer) (S. aureus); test: MST

CSCC[C@H](NC=O)C(=O)N[C@@H](CCC(=O)O)C(=O)N[C@@H](C)C(=O)N[C@H](C(=O)N[C@@H](C)C(=O)N[C@@H](CCCCN)C(=O)N[C@@H](CC(C)C)C(=O)N[C@@H](Cc1ccccc1)C(=O)N[C@@H](CCCCN)C(=O)N[C@@H](Cc1ccccc1)C(=O)N[C@@H](Cc1ccccc1)C(=O)N[C@@H](CCCCN)C(=O)N[C@@H](CC(=O)O)C(=O)N[C@@H](CC(C)C)C(=O)N[C@@H](CC(C)C)C(=O)NCC(=O)N[C@@H](CCCCN)C(=O)N[C@@H](Cc1ccccc1)C(=O)N[C@@H](CC(C)C)C(=O)NCC(=O)N[C@@H](CC(N)=O)C(=O)N[C@@H](CC(N)=O)C(=O)O)C(C)C [PSMα3F3A] (HELM PEPTIDE1{[O=C[*:2]].M.E.A.V.A.K.L.F.K.F.F.K.D.L.L.G.K.F.L.G.N.N}$$$$V2.0)
cytotoxicity (in words) [1]: cytotoxic; also recorded: maintains cytotoxicity

PSMα3F3A peptide
stoichiometry N [2]: > 2
